Results: patent US7446199B2, “Compositions useful as inhibitors of protein kinases” (Vertex Pharmaceuticals Incorporated, priority 2003, dated 2008)

Tests used:
Format in all cases: biochemical
TAK1A-TAB fusion protein = molecular target: T1, TAK1A-TAB fusion protein (Homo sapiens, UniProt O43318); assay: TAK-1 inhibition assay, radiometric filter binding assay; settings: 50 μM ATP, 12 μM bovine myelin basic protein, 20 nM TAK1A-TAB fusion protein
T1 construct: using 20 nM TAK1A-TAB fusion protein
T1 sequence (O43318 with tags, fused parts or gaps isoform O43318-2 limits assumed): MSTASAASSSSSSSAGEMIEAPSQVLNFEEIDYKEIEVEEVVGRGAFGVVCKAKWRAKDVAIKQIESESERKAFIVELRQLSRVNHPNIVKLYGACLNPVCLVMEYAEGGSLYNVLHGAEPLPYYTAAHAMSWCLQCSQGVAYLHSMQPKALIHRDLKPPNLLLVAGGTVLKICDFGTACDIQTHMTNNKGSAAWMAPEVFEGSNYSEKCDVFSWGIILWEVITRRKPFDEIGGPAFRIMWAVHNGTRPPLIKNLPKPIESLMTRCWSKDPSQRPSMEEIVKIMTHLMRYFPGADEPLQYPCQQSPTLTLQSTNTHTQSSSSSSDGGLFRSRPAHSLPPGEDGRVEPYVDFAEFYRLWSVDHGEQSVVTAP
Summary of the method: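 Radiometric filter-binding assay with 20 nM TAK1A-TAB fusion, 50 μM [33P]ATP and 12 μM bovine MBP in pH 7.5 HEPES/MgCl2, NaCl, DTT, 1.5% DMSO. Compounds titrated 0.046–3.73 μM (6 points); 2 h at ~20 °C, TCA quench, filtered counts. Ki derived from rate versus inhibitor concentration.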

SYK = SYK (Homo sapiens, UniProt P43405); assay: SYK enzyme assay, coupled enzyme assay; settings: 200 μM ATP, 4 μM poly Gly-Tyr peptide, 30° C.
Summary of the method: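 Pyruvate kinase/lactate dehydrogenase-coupled NADH assay in HEPES pH 7.5 with MgCl2, NaCl, DTT and 1.5% DMSO, using 200 μM ATP, 4 μM poly Gly-Tyr and 25 nM enzyme. Compound at 30 μM final was preincubated ~10 min at 30 °C. Rates were read over 5 min at 30 °C and Ki derived.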

Aurora-2 = molecular target: T2, Aurora-2 (Homo sapiens, UniProt O14965); assay: Inhibition of AUR-2, coupled enzyme assay; settings: 70 nM Aurora-2, 800 μM peptide LRRASLG, 30° C.
T2 construct: addition of 10 μL of Aurora-2 stock solution to give a final concentration of 70 nM
T2 sequence (O14965 1-403): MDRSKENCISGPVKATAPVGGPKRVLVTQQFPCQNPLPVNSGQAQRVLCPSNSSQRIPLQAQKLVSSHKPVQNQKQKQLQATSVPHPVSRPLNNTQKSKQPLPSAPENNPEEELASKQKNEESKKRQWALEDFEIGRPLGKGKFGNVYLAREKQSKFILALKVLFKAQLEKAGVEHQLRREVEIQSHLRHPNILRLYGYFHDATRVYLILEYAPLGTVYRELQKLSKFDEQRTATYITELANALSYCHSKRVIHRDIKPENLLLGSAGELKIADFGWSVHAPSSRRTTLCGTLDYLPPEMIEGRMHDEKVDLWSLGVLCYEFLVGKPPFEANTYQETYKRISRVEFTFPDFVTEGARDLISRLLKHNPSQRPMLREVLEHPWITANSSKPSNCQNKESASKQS
Procedure: Compounds are screened in the following manner for their ability to inhibit Aurora-2 using a standard coupled enzyme assay (Fox et al. (1998) Protein Sci 7, 2249). To an assay stock buffer solution containing 0.1M HEPES 7.5, 10 mM MgCl2, 1 mM DTT, 25 mM NaCl, 2.5 mM phosphoenolpyruvate, […], […], […], and 800 μM peptide (LRRASLG, American Peptide, Sunnyvale, Calif.) is added a DMSO solution of a compound of the present invention to a final concentration of 30 μM. The resulting mixture is incubated at 30° C. for 10 min. The reaction was initiated by the addition of 10 μL of Aurora-2 stock solution to give a final concentration of 70 nM in the assay. The rates of reaction are obtained by monitoring absorbance at 340 nm over a 5 minute read time at 30° C. using a BioRad Ultramark plate reader (Hercules, Calif.). The Ki values are determined from the rate data as a function of inhibitor concentration.

Row | SMILES | Ki (TAK1A-TAB fusion protein) [nM] | Ki (SYK) [nM] | Ki (Aurora-2) [nM]
1 | c1ccc(-c2cnoc2-c2c[nH]c3ncccc23)cc1 [Compound 35, 3-[4-Phenyl-isoxazol-5-yl]-1H-pyrrolo[2,3-b]pyridine] |  | 1000 to 12500 | 
2 | Fc1ccc(F)c(-c2cnoc2-c2c[nH]c3ncccc23)c1F [Compound 41, 3-[4-(2,3,6-Trifluoro-phenyl)-isoxazol-5-yl]-1H-pyrrolo [2,3-b]pyridine] |  | 1000 to 12500 | 
3 | Fc1cccc(-n2cnnc2-c2c[nH]c3ncc(-c4ccc(N5CCNCC5)nc4)cc23)c1F [Compound 111, 3-[4-(2,3-Difluoro-phenyl)-4H-[1,2,4]triazol-3-yl]-5-(6-piperazin-1-yl-pyridin-3-yl)-1H-pyrrolo[2,3-b]pyridine] | 1000 to 12500 |  | 
4 | C[N+]1(C)CCN(c2ccc(-c3cnc4[nH]cc(-c5oncc5-c5cccc(F)c5F)c4c3)cc2)CC1 [Compound 155] | < 200 | 200 to 1000 | 

Other lines, results leading:

Row | Ki (TAK1A-TAB fusion protein) [nM] | Ki (SYK) [nM] | Ki (Aurora-2) [nM] | SMILES
5 | 200 to 1000 |  |  | CN1CCN(C(=O)[C@H]2C[C@@H]2c2cnc3[nH]cc(-c4oncc4-c4cccc(F)c4F)c3c2)CC1 (relative stereo) [Compound 142, trans-(2-{3-[4-(2,3-Difluoro-phenyl)-isoxazol-5-yl]-1H-pyrrolo[2,3-b]pyridin-5-yl}-cyclopropyl)-(4-methyl-piperazin-1-yl)-methanone]
6 |  | 1000 to 12500 | < 200 | Fc1cccc(-c2cnoc2-c2c[nH]c3ncc(Cl)cc23)c1F [Compound 44, 3-[4-(2,3-Difluoro-phenyl)-isoxazol-5-yl]-5-chloro-1H-pyrrolo[2,3-b]pyridine]
7 | 1000 to 12500 |  | 200 to 1000 | Cc1cnc2[nH]cc(-c3oncc3-c3cccc(F)c3F)c2c1 [Compound 46, 3-[4-(2,3-Difluoro-phenyl)-isoxazol-5-yl]-5-methyl-1H-pyrrolo[2,3-b]pyridine]
8 | 200 to 1000 |  |  | CN(C)C1CCC(c2cnc3[nH]cc(-c4oncc4-c4cccc(F)c4F)c3c2)CC1 (stereo not drawn) [Compound 141, (4-{3-[4-(2,3-Difluoro-phenyl)-isoxazol-5-yl]-1H-pyrrolo[2,3-b]pyridin-5-yl}-cyclohexyl)-dimethylamine]
9 |  |  | < 200 | NC(=O)c1ccc(-c2cnc3[nH]cc(-c4oncc4-c4cccc(F)c4F)c3c2)cc1 [Compound 153]
